According to patent US9090600B2, “Fungicidal 4-substituted-3-{phenyl[(heterocyclylmethoxy)imino]methyl}-1,2,4-oxadizol-5(4H)-one derivatives” (BAYER INTELLECTUAL PROPERTY GMBH, priority 2011, dated 2015):
Marks after values point to notes of the source that are not given here.

How the values were obtained:
[1] = pH 2.7
Phytophthora infestans = format: in vivo; settings: tomato plants, spray, 500 ppm, grading 5 days after contamination

Row | SMILES | LogP [1] | Eff. % (Phytophthora infestans) [%]
1 | Cn1c(/C(=N\OCc2csc(NC(=O)c3cccc(Br)c3)n2)c2ccccc2)noc1=O [Example 289] | 4.04 [a] | 98
2 | Cn1c(/C(=N\OCc2cccc(NC(=O)OC3CCCC3)n2)c2ccccc2)noc1=O [Example 110] | 4.09 [a] | 98
3 | COc1ccccc1CCOC(=O)Nc1cccc(CO/N=C(/c2ccccc2)c2noc(=O)n2C)n1 [Example 175] | 4.31 [a] | 93
4 | C#CCC(C)OC(=O)Nc1cccc(CO/N=C(/c2ccccc2)c2noc(=O)n2CC)n1 (stereo not drawn) [Example 127] | 3.81 [a] | 100
5 | Cn1c(/C(=N\OCc2cccc(NC(=O)OCCc3ccccc3)n2)c2cccc(F)c2)noc1=O [Example 297] | 4.26 [a] | 95
6 | C=CCCOC(=O)Nc1cccc(CO/N=C(/c2ccccc2)c2noc(=O)n2C)n1 [Example 363] | 3.71 [a] | 99
7 | CCCOC(=O)Nc1cccc(CO/N=C(/c2ccccc2)c2noc(=O)n2C)n1 [Example 33] | 3.62 [a] | 100
8 | CCCCCCOC(=O)Nc1cccc(CO/N=C(/c2ccccc2)c2noc(=O)n2C)n1 [Example 107] | 4.85 [a] | 100
9 | Cn1c(/C(=N\OCc2csc(NC(=O)c3cccc(I)c3)n2)c2ccccc2)noc1=O [Example 143] | 4.19 [a] | 75
10 | COc1ccc(CCOC(=O)Nc2cccc(CO/N=C(/c3ccccc3)c3noc(=O)n3C)n2)cc1 [Example 310] | 4.08 [a] | 70
11 | Cn1c(C(=NOCc2cccc(N(C(=O)OC(C)(C)C)C(=O)OC(C)(C)C)n2)c2cccc(F)c2)noc1=O [Example 261] | 4.51 [a] | 100
12 | Cn1c(/C(=N\OCc2cccc(NC(=O)C3(F)CC3)n2)c2ccccc2)noc1=O [Example 309] | 3.31 [a] | 100
13 | CC(=O)Nc1cccc(CO/N=C(/c2ccccc2)c2noc(=O)n2C)n1 [Example 52] | 2.44 [a] | 100
14 | Cc1cccc(/C(=N/OCc2cccc(N(C(=O)OC(C)(C)C)C(=O)OC(C)(C)C)n2)c2noc(=O)n2C)c1 [Example 87] | 4.77 [a] | 95
15 | Cc1ccoc1C(=O)Nc1cccc(CO/N=C(/c2ccccc2)c2noc(=O)n2C)n1 [Example 170] | 3.71 [a] | 100
16 | COc1ccc(CC(=O)Nc2cccc(CO/N=C(/c3cccc(OC)c3)c3noc(=O)n3C)n2)cc1 [Example 101] | 3.51 [a] | 97
17 | Cn1c(/C(=N\OCc2csc(NC(=O)c3ccccc3F)n2)c2ccccc2)noc1=O [Example 27] | 3.44 [a] | 100
18 | CCCC(=O)Nc1nc(CON=C(c2ccccc2)c2noc(=O)n2C)cs1 [Example 271] | 3.02 [a] | 80
19 | CC(C)CC(C)OC(=O)Nc1cccc(CO/N=C(/c2ccc(F)cc2)c2noc(=O)n2C)n1 (racemic) [Example 383] | 4.77 [a] | 70
20 | Cn1c(/C(=N\OCc2cccc(NC(=O)c3ccccc3F)n2)c2ccccc2)noc1=O [Example 114] | 3.73 [a] | 100
21 | Cn1c(/C(=N\OCc2csc(NC(=O)OCC(C)(C)C)n2)c2ccccc2)noc1=O [Example 72] | 4.01 [a] | 97
22 | CC(COC(=O)Nc1cccc(CO/N=C(/c2ccccc2)c2noc(=O)n2C)n1)c1ccccc1 (stereo not drawn) [Example 145] | 4.46 [a] | 83
23 | Cn1c(C(=NOCc2csc(NC(=O)c3ccc(F)cc3)n2)c2ccccc2)noc1=O [Example 251] | 3.55 [a] | 98

Row | SMILES | LogP [1] | Eff. % (Phytophthora infestans) [%]
24 | CCCC(=O)Nc1cccc(CON=C(c2ccccc2)c2noc(=O)n2C)n1 [Example 266] | 3.13 [a] | 100
25 | COc1cccc(/C(=N/OCc2cccc(NC(=O)CC(C)C)n2)c2noc(=O)n2C)c1 [Example 362] | 3.46 [a] | 71
26 | Cn1c(/C(=N\OCc2cccc(NC(=O)C3CCC3)n2)c2ccccc2)noc1=O [Example 118] | 3.27 [a] | 100
27 | C=CCCOC(=O)Nc1nc(CO/N=C(/c2ccccc2)c2noc(=O)n2C)cs1 [Example 394] | 3.44 [a] | 90
28 | Cc1cccc(C(=NOCc2cccc(NC(=O)OCCc3ccccc3)n2)c2noc(=O)n2C)c1 [Example 272] | 4.49 [a] | 88
29 | CCCCCOC(=O)Nc1cccc(CO/N=C(/c2cccc(C)c2)c2noc(=O)n2C)n1 [Example 224] | 4.78 [a] | 93
30 | Cn1c(/C(=N\OCc2cccc(NC(=O)CCCCCBr)n2)c2ccccc2)noc1=O [Example 374] | 3.85 [a] | 100
31 | Cn1c(/C(=N\OCc2csc(NC(=O)OC3CCCC3)n2)c2ccccc2)noc1=O [Example 103] | 3.76 [a] | 80
32 | Cn1c(/C(=N\OCc2csc(NC(=O)COc3ccc(Br)cc3)n2)c2ccccc2)noc1=O [Example 55] | 3.94 [a] | 100
33 | CCn1c(/C(=N\OCc2cccc(NC(=O)OC3CCCCC3)n2)c2ccccc2)noc1=O [Example 61] | 4.77 [a] | 100
34 | Cn1c(/C(=N\OCc2cccc(NC(=O)C(F)(F)C(F)(F)C(F)(F)F)n2)c2ccccc2)noc1=O [Example 348] | 4.17 [a] | 100
35 | Cn1c(/C(=N\OCc2cccc(NC(=O)Cc3ccc4ccccc4c3)n2)c2ccccc2)noc1=O [Example 381] | 4.12 [a] | 75
36 | C=CC(=O)Nc1cccc(CO/N=C(/c2ccccc2)c2noc(=O)n2C)n1 [Example 304] | 2.77 [a] | 83
37 | COc1ccc(C(=NOCc2cccc(NC(=O)OC(C)(C)C)n2)c2noc(=O)n2C)cc1 [Example 396] | 3.96 [a] | 73
38 | Cn1c(/C(=N\OCc2cccc(NC(=O)c3ccc(Oc4ccccc4)cc3)n2)c2ccccc2)noc1=O [Example 357] | 4.58 [a] | 92
39 | Cn1c(/C(=N\OCc2csc(NC(=O)OCc3ccccc3)n2)c2ccccc2)noc1=O [Example 239] | 3.73 [a] | 84
40 | Cn1c(/C(=N\OCc2csc(NC(=O)Oc3ccccc3)n2)c2ccccc2)noc1=O [Example 75] | 3.48 [a] | 90
41 | Cn1c(/C(=N\OCc2cccc(NC(=O)Cc3ccccc3Cl)n2)c2ccccc2)noc1=O [Example 29] | 3.76 [a] | 100
42 | CC(C)CCOC(=O)Nc1cccc(CO/N=C(/c2ccccc2)c2noc(=O)n2C)n1 [Example 182] | 4.39 [a] | 100
43 | CC(C)=CCC(=O)Nc1cccc(CO/N=C(/c2ccccc2)c2noc(=O)n2C)n1 [Example 153] | 3.59 [a] | 100
44 | CC(OCC1CC1)C(=O)Nc1cccc(CO/N=C(/c2ccccc2)c2noc(=O)n2C)n1 (racemic) [Example 390] | 3.78 [a] | 100
45 | Cn1c(/C(=N\OCc2cccc(NC(=O)CCCc3ccccc3)n2)c2ccccc2)noc1=O [Example 377] | 4.04 [a] | 99
